These results are taken from patent US20210261512A1, “NOVEL COMPOUNDS” (INFLAZOME LIMITED, priority 2018, published 2021).

A short description of series [1]: PK, intravenous administration. It is filed as in vivo. The conditions noted are these: rat, plasma, male Sprague Dawley rats, dose about 1 mg/kg; for Vd: read-out: Vdss. An outline of the steps:
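Male Sprague Dawley rats (6-9 weeks); IV dosing via tail vein as solution in DMSO:water or DMSO:PBS (10:90), oral dosing in 0.5% methylcellulose after overnight fasting. Plasma sampled at 8 time-points to 24 h; parameters derived from LC-MS/MS data.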

The target of series [2] is T1, NLRP3 (Homo sapiens, UniProt Q96P20). Description: Human whole blood IL1β release assay. The class given is cell-based. The conditions noted are these: LPS 1 μg/ml, nigericin 10 μM, IL-1β AlphaLisa, 10 μM top dose (Example 2: top dose of 30 μM), read-out: HWB IC50. An outline of the steps: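 Healthy-donor heparinised human whole blood with 1 μg/ml LPS, compound (8-point half-log dilution, 10 μM top dose unless stated; 0.1% DMSO vehicle) for 3 h at 37 °C, then nigericin 10 μM final for 1 h. Supernatant IL-1β by AlphaLISA; IC50 from 4-parameter variable-slope fit.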
T1 sequence (Q96P20 whole entry): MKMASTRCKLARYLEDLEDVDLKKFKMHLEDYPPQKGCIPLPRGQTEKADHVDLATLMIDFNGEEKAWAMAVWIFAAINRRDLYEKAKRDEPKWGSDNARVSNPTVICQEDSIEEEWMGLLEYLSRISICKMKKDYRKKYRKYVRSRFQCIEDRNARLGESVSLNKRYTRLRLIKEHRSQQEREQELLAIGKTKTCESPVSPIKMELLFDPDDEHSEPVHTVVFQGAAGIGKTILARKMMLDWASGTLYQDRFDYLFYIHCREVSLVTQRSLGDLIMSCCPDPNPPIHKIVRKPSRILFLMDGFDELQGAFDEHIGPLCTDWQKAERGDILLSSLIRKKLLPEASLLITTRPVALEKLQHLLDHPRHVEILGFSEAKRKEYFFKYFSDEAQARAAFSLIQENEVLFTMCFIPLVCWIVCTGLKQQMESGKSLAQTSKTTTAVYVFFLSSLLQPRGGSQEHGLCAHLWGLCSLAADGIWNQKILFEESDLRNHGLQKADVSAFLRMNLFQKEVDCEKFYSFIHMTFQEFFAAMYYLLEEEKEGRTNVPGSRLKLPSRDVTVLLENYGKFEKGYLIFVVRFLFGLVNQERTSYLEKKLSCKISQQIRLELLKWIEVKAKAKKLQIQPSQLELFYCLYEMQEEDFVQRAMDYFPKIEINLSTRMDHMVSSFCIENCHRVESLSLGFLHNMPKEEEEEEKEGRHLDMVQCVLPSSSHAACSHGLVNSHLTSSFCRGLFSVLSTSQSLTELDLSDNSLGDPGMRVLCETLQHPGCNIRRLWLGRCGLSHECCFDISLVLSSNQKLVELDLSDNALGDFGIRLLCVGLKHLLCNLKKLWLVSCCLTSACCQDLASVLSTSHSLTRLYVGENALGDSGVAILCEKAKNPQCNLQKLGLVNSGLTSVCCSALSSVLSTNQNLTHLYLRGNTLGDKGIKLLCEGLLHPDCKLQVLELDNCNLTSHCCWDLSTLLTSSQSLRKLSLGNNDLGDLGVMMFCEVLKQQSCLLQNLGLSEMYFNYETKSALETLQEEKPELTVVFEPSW
(In general: Bead proximity is the source of the signal in Alpha formats.)

The target of series [3] is T1, NLRP3. Description: THP-1 cells pyroptosis assay. It is filed as cell-based. Also on record: Seed THP-1 cells (25,000 cells/well) containing 1.0 μg/ml LPS; host or cells: THP-1. The conditions noted are these: LPS 1.0 μg/ml, nigericin 5 μM, resazurin readout, 10 μM top dose (Example 2: top dose of 30 μM). An outline of the steps: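 Pyroptosis induced by 5 μM nigericin (1 h) in LPS-primed (1 μg/ml) THP-1 cells, 25,000/well in serum-free RPMI, after 3 h compound pre-treatment (8 points, 10 μM top unless stated). Surviving cells measured with 100 μM resazurin, Ex 560/Em 590; IC50 via variable-slope 4-parameter regression.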

What is called AUC is concentration integrated over time. A higher AUC goes with high exposure. The clearance is the rate of elimination divided by the concentration. Read a low clearance as a low capacity for elimination. A word on the half-life: it is how long it takes for the measured level to halve. The low end stands for fast loss, the high end for slow loss. In general, IC50 refers to the concentration that inhibits the measured activity by half.

As for `COc1cc(-c2cc(F)cc(C(C)C)c2Nc2nnc(S(=O)(=O)N3CCC(CN(C)C)C3)[nH]2)ccn1` (stereo not drawn) [Example 259, 5-((3-((dimethylamino)methyl)pyrrolidin-1-yl)sulfonyl)-N-(4-fluoro-2-isopropyl-6-(2-methoxypyridin-4-yl)phenyl)-4H-1,2,4-triazol-3-amine], in series [1], the AUC came out at 169 ng·h/mL, the clearance was 90.1 mL/min/kg, the half-life was 2.23 h and the Vd turned out to be 9.57 L/kg. Also, the 50% inhibitory concentration (IC50) on NLRP3 [2] was at most 1000 nM. The concentration for half-maximal inhibition (IC50) against NLRP3 [3] was at most 500 nM.
Regarding `COc1cc(-c2cc(F)cc(C(C)C)c2Oc2nnc(S(=O)(=O)N3CCC4(CCN4C)CC3)[nH]2)ccn1` [Example 252, 7-((5-(4-fluoro-2-isopropyl-6-(2-methoxypyridin-4-yl)phenoxy)-4H-1,2,4-triazol-3-yl)sulfonyl)-1-methyl-1,7-diazaspiro[3.5]nonane], in series [1], the AUC amounted to 362 ng·h/mL, the clearance is 51.1 mL/min/kg, the half-life is 0.426 h and the Vd was found to be 0.82 L/kg. The concentration for half-maximal inhibition (IC50) on NLRP3 [2] is at most 5000 nM. This compound came in with an IC50 against NLRP3 [3] of at most 1000 nM.
With `CN1CCC2(CCN(S(=O)(=O)c3nnc(Nc4c5c(cc6c4CCC6)CCC5)[nH]3)CC2)C1` [Example 276, N-(1,2,3,5,6,7-hexahydro-s-indacen-4-yl)-5-((2-methyl-2,8-diazaspiro[4.5]decan-8-yl)sulfonyl)-4H-1,2,4-triazol-3-amine], in series [1], the exposure (AUC) stood at 239 ng·h/mL, the clearance came out at 69.7 mL/min/kg, the half-life was 1.94 h and the Vd worked out at 7.51 L/kg. In addition, the IC50 at NLRP3 [2] was at most 500 nM. The compound further showed a concentration for half-maximal inhibition (IC50) against NLRP3 [3] of at most 500 nM.
Take `CC(C)N1CC(S(=O)(=O)c2nnc(Nc3c4c(cc5c3CCC5)CCC4)[nH]2)C1` [Example 22, N-(1,2,3,5,6,7-hexahydro-s-indacen-4-yl)-5-((1-isopropylazetidin-3-yl)sulfonyl)-4H-1,2,4-triazol-3-amine]: in series [1], the AUC was 364 ng·h/mL, the clearance amounted to 45.8 mL/min/kg, the half-life was 0.4 h and the Vd is 1.09 L/kg. Besides, the IC50 at NLRP3 [2] was at most 10000 nM. At NLRP3 [3], this compound had an IC50 of at most 5000 nM.
With `O=S(=O)(CCCN1CCCC1)c1nnc(Nc2c3c(cc4c2CCC4)CCC3)[nH]1` [Example 49, N-(1,2,3,5,6,7-hexahydro-s-indacen-4-yl)-5-((3-(pyrrolidin-1-yl)propyl)sulfonyl)-4H-1,2,4-triazol-3-amine], in series [1], the AUC is 168 ng·h/mL, the clearance was determined as 98.9 mL/min/kg, the half-life was 2.1 h and the Vd came to 8.08 L/kg. The half-inhibitory concentration (IC50) at NLRP3 [2] was at most 1000 nM. In addition, the IC50 against NLRP3 [3] was at most 500 nM.
Consider `CN(C)C1CCN(S(=O)(=O)c2nnc(Nc3c4c(cc5c3CCC5)CCC4)[nH]2)CC1` [Example 118, 1-((5-((1,2,3,5,6,7-hexahydro-s-indacen-4-yl)amino)-4H-1,2,4-triazol-3-yl)sulfonyl)-N,N-dimethylpiperidin-4-amine], for which, in series [1], the AUC amounted to 307 ng·h/mL, the clearance stood at 54.2 mL/min/kg, the half-life was 1.4 h and the Vd worked out at 4.01 L/kg. Moreover, at NLRP3 [2], the concentration for half-maximal inhibition (IC50) is at most 500 nM. In addition, the IC50 on NLRP3 [3] was at most 500 nM.
In the case of `COc1cc(-c2cc(F)cc(C(C)C)c2Cc2nnc(S(=O)(=O)N3CCC(CN(C)C)C3)[nH]2)ccn1` (stereo not drawn) [Example 156, 1-(1-((5-(4-fluoro-2-isopropyl-6-(2-methoxypyridin-4-yl)benzyl)-4H-1,2,4-triazol-3-yl)sulfonyl)pyrrolidin-3-yl)-N,N-dimethylmethanamine], in series [1], the AUC is 193 ng·h/mL, the clearance is 103 mL/min/kg, the half-life is 0.4 h and the Vd turned out to be 2.95 L/kg. In addition, the IC50 at NLRP3 [2] is at most 5000 nM. Besides, at NLRP3 [3], the half-maximal inhibitory concentration (IC50) was at most 1000 nM.
For the compound `COc1cc(-c2ccc3c(c2Nc2nnc(S(=O)(=O)N4CC5(CCN(C)C5)C4)[nH]2)CCO3)ccn1` [Example 214, N-(5-(2-methoxypyridin-4-yl)-2,3-dihydrobenzofuran-4-yl)-5-((6-methyl-2,6-diazaspiro[3.4]octan-2-yl)sulfonyl)-4H-1,2,4-triazol-3-amine], in series [1], the AUC was determined as 182 ng·h/mL, the clearance is 78.1 mL/min/kg, the half-life is 0.25 h and the Vd turned out to be 1.02 L/kg. Moreover, the half-inhibitory concentration (IC50) at NLRP3 [2] was at most 500 nM. Also, at NLRP3 [3], the concentration for half-maximal inhibition (IC50) was at most 500 nM.
As for `CCN(CC)CCNS(=O)(=O)c1nnc(Nc2c3c(cc4c2CCC4)CCC3)[nH]1` [Example 81, N-(2-(diethylamino)ethyl)-5-((1,2,3,5,6,7-hexahydro-s-indacen-4-yl)amino)-4H-1,2,4-triazole-3-sulfonamide], in series [1], the AUC amounted to 278 ng·h/mL, the clearance came out at 59.9 mL/min/kg, the half-life was 1.5 h and the Vd is 4.61 L/kg. For the same compound, at NLRP3 [2], the IC50 is at most 1000 nM. The compound also had a concentration for half-maximal inhibition (IC50) on NLRP3 [3] of at most 500 nM.
As to `COc1cc(-c2ccc3c(c2Nc2nnc(S(=O)(=O)N4CC5(CCN(C)C5)C4)[nH]2)CCC3)ccn1` [Example 215, N-(5-(2-methoxypyridin-4-yl)-2,3-dihydro-1H-inden-4-yl)-5-((6-methyl-2,6-diazaspiro[3.4]octan-2-yl)sulfonyl)-4H-1,2,4-triazol-3-amine], in series [1], the AUC stood at 58 ng·h/mL, the clearance is 121 mL/min/kg, the half-life was 0.52 h and the Vd came to 2.86 L/kg. The half-inhibitory concentration (IC50) at NLRP3 [2] is at most 500 nM. On NLRP3 [3], this compound showed a half-inhibitory concentration (IC50) of at most 500 nM.
Consider `CCN(CC)CCCS(=O)(=O)c1nnc(Nc2c3c(cc4c2CCC4)CCC3)[nH]1` [Example 24, 5-((3-(diethylamino)propyl)sulfonyl)-N-(1,2,3,5,6,7-hexahydro-s-indacen-4-yl)-4H-1,2,4-triazol-3-amine], for which, in series [1], the AUC is 173 ng·h/mL, the clearance came to 96.5 mL/min/kg, the half-life was 0.8 h and the Vd stood at 5.26 L/kg. The IC50 at NLRP3 [2] was at most 1000 nM. The compound also came in with a half-maximal inhibitory concentration (IC50) against NLRP3 [3] of at most 500 nM.
Turning to `CN(C)C1CCCN(S(=O)(=O)c2nnc(Nc3c4c(cc5c3CCC5)CCC4)[nH]2)CC1` (stereo not drawn) [Example 271, 1-((5-((1,2,3,5,6,7-hexahydro-s-indacen-4-yl)amino)-4H-1,2,4-triazol-3-yl)sulfonyl)-N,N-dimethylazepan-4-amine], in series [1], the AUC amounted to 221 ng·h/mL, the clearance came out at 75 mL/min/kg, the half-life is 3.53 h and the Vd was 14.9 L/kg. The IC50 on NLRP3 [2] was at most 1000 nM. The compound further displayed a 50% inhibitory concentration (IC50) against NLRP3 [3] of at most 500 nM.
`CN1CCC12CCN(S(=O)(=O)c1nnc(Nc3c4c(cc5c3CCC5)CCC4)[nH]1)CC2` [Example 270, N-(1,2,3,5,6,7-hexahydro-s-indacen-4-yl)-5-((1-methyl-1,7-diazaspiro[3.5]nonan-7-yl)sulfonyl)-4H-1,2,4-triazol-3-amine]: in series [1], the AUC is 236 ng·h/mL, the clearance amounted to 71 mL/min/kg, the half-life was 2.53 h and the Vd worked out at 9.16 L/kg. Moreover, the half-maximal inhibitory concentration (IC50) on NLRP3 [2] is at most 500 nM. The compound also returned an IC50 against NLRP3 [3] of at most 500 nM.
With `CN(C)C1CCN(S(=O)(=O)c2nnc(Nc3c4c(c(Cl)c5c3CCC5)CCC4)[nH]2)CC1` [Example 300, 1-((5-((8-chloro-1,2,3,5,6,7-hexahydro-s-indacen-4-yl)amino)-1H-1,2,4-triazol-3-yl)sulfonyl)-N,N-dimethylpiperidin-4-amine], in series [1], the AUC was determined as 235 ng·h/mL, the clearance is 70.8 mL/min/kg, the half-life is 2.65 h and the Vd was found to be 10.6 L/kg. The IC50 on NLRP3 [2] was at most 5000 nM. Moreover, the concentration for half-maximal inhibition (IC50) against NLRP3 [3] is at most 500 nM.
